Test results taken from PubChem BioAssay (NCI).
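Values below derive from 48-hour exposures of cells grown in 96-well plates, with endpoints linearly interpolated between the two concentrations bracketing the appropriate inhibition level. Here, GI50 denotes the concentration required for 50% inhibition of growth. The concentration for full growth arrest is given as TGI.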

What was measured:
Experiment in all cases: NCI-60 cell line screen, 48 h
[1] = tested on: MOLT-4 leukemia
[2] = tested on: 786-0 renal
[3] = tested on: KM12 colon
[4] = tested on: OVCAR-3 ovarian
[5] = tested on: ACHN renal
[6] = tested on: OVCAR-8 ovarian
[7] = tested on: NCI-H522 lung
[8] = tested on: SF-539 CNS
[9] = tested on: HOP-92 NSCLC
[10] = tested on: COLO 205 colon
[11] = tested on: DU-145 prostate
[12] = tested on: HCT-116 colon
[13] = tested on: HCT-15 colon
[14] = tested on: LOX IMVI melanoma
[15] = tested on: CCRF-CEM leukemia
[16] = tested on: MDA-MB-435
[17] = tested on: SK-MEL-5 melanoma
[18] = tested on: SR leukemia
[19] = tested on: HL-60(TB) leukemia
[20] = tested on: IGROV1 ovarian
[21] = tested on: SNB-75 CNS
[22] = tested on: MDA-MB-231 breast
[23] = tested on: T-47D breast
[24] = tested on: MDA-MB-468 breast
[25] = tested on: HOP-62 NSCLC
[26] = tested on: MALME-3M melanoma
[27] = tested on: TK-10 renal
[28] = tested on: M14 melanoma
[29] = tested on: SN12C renal
[30] = tested on: CAKI-1 renal
[31] = tested on: SK-OV-3 ovarian
[32] = tested on: NCI/ADR-RES ovarian
[33] = tested on: UACC-257 melanoma
[34] = tested on: SW-620 colon
[35] = tested on: UO-31 renal
[36] = tested on: K-562 leukemia
[37] = tested on: SK-MEL-28 melanoma
[38] = tested on: SNB-19 CNS
[39] = tested on: SF-268 CNS
[40] = tested on: UACC-62 melanoma
[41] = tested on: A498 renal
[42] = tested on: RXF 393 renal
[43] = tested on: MCF7 breast
[44] = tested on: RPMI-8226 leukemia
[45] = tested on: HCC-2998 colon
[46] = tested on: HT29 colon
[47] = tested on: OVCAR-4 ovarian
[48] = tested on: NCI-H460 lung
[49] = tested on: PC-3 prostate
[50] = tested on: SF-295 CNS
[51] = tested on: A549 NSCLC
[52] = tested on: NCI-H23 lung
[53] = tested on: U251 CNS
[54] = tested on: SK-MEL-2 melanoma
[55] = tested on: BT-549 breast
[56] = tested on: NCI-H226 lung
[57] = tested on: EKVX NSCLC
[58] = tested on: HS 578T breast
[59] = tested on: OVCAR-5 ovarian

`CCOc1ccc(-c2cc(-c3cc(C(C)C)c(O)cc3C)nn2-c2ccc(S(N)(=O)=O)cc2)cc1` showed a GI50 [1] of 4.02 µM, a TGI [1] of 17.6 µM and a GI50 [2] of 11.2 µM. For the same molecule, the TGI [2] was 23.3 µM, the GI50 [3] was 3.47 µM and the TGI [3] was 13.4 µM. It also gave a GI50 [4] of 4.55 µM, a TGI [4] of 15.3 µM and a GI50 [5] of 10.5 µM. It also gave a TGI [5] of 22.3 µM, a GI50 [6] of 7.24 µM and a TGI [6] of 21.6 µM. It also gave a GI50 [7] of 2.75 µM, a TGI [7] of 11 µM and a GI50 [8] of 5.51 µM. The TGI [8] was 17.7 µM, the GI50 [9] was 2.82 µM and the TGI [9] was 13 µM. The GI50 [10] was 17.1 µM, the TGI [10] was 31.7 µM and the GI50 [11] was 7.07 µM. For the same molecule, the TGI [11] was 19.9 µM, the GI50 [12] was 5.46 µM and the TGI [12] was 18.2 µM. The GI50 [13] was 3.61 µM, the TGI [13] was 14.4 µM and the GI50 [14] was 5.65 µM. The TGI [14] was 18.3 µM, the GI50 [15] was 2.86 µM and the TGI [15] was 13.8 µM. The GI50 [16] was 1.91 µM, the TGI [16] was 4.44 µM and the GI50 [17] was 5.3 µM. It also gave a TGI [17] of 17.8 µM, a GI50 [18] of 1.8 µM and a TGI [18] of 43.8 µM. It also gave a GI50 [19] of 4.81 µM, a TGI [19] of 37.3 µM and a GI50 [20] of 12.1 µM. For the same molecule, the TGI [20] was 24.9 µM, the GI50 [21] was 2.48 µM and the TGI [21] was 13 µM. The GI50 [22] was 6.78 µM, the TGI [22] was 20.3 µM and the GI50 [23] was 3.71 µM. It also gave a TGI [23] of 17 µM, a GI50 [24] of 2.39 µM and a TGI [24] of 6.76 µM. The GI50 [25] was 10.4 µM, the TGI [25] was 23.4 µM and the GI50 [26] was 11 µM. The TGI [26] was 23.4 µM, the GI50 [27] was 15.6 µM and the TGI [27] was 29.1 µM. The GI50 [28] was 9.86 µM, the TGI [28] was 22.4 µM and the GI50 [29] was 6.66 µM. It also gave a TGI [29] of 20.1 µM, a GI50 [30] of 4.92 µM and a TGI [30] of 18 µM. It also gave a GI50 [31] of 10.7 µM, a TGI [31] of 22.7 µM and a GI50 [32] of 3.15 µM. The TGI [32] was 12.2 µM, the GI50 [33] was 10.4 µM and the TGI [33] was 22.5 µM. It also gave a GI50 [34] of 5.94 µM, a TGI [34] of 20 µM and a GI50 [35] of 5.46 µM. It also gave a TGI [35] of 18.3 µM, a GI50 [36] of 3.38 µM and a TGI [36] greater than 100 µM. It also gave a GI50 [37] of 11.7 µM, a TGI [37] of 24 µM and a GI50 [38] of 12.3 µM. The TGI [38] was 24.8 µM, the GI50 [39] was 7.22 µM and the TGI [39] was 21.4 µM. The GI50 [40] was 7.25 µM, the TGI [40] was 20.4 µM and the GI50 [41] was 13.4 µM. For the same molecule, the TGI [41] was 26.4 µM, the GI50 [42] was 4.45 µM and the TGI [42] was 17.2 µM. It also gave a GI50 [43] of 4.88 µM, a TGI [43] of 19.2 µM and a GI50 [44] of 4.29 µM. The TGI [44] was 22.2 µM, the GI50 [45] was 3.87 µM and the TGI [45] was 12.7 µM. It also gave a GI50 [46] of 15.4 µM, a TGI [46] of 29.5 µM and a GI50 [47] of 7.29 µM. For the same molecule, the TGI [47] was 21 µM, the GI50 [48] was 5.21 µM and the TGI [48] was 18.1 µM. The GI50 [49] was 5.47 µM, the TGI [49] was 19.6 µM and the GI50 [50] was 9.37 µM. The TGI [50] was 21.3 µM, the GI50 [51] was 4.62 µM and the TGI [51] was 19.2 µM. The GI50 [52] was 6.86 µM, the TGI [52] was 20.5 µM and the GI50 [53] was 5.29 µM. For the same molecule, the TGI [53] was 18.6 µM, the GI50 [54] was 7.28 µM and the TGI [54] was 20.8 µM. For the same molecule, the GI50 [55] was 2.93 µM, the TGI [55] was 11.4 µM and the GI50 [56] was 15.7 µM. It also gave a TGI [56] of 37 µM, a GI50 [57] of 3.96 µM and a TGI [57] of 15.2 µM. For the same molecule, the GI50 [58] was 5.8 µM, the TGI [58] was 25.9 µM and the GI50 [59] was 15.7 µM. It also gave a TGI [59] of 29.2 µM.
